Test results from US7326418B2, “Identification of novel factors that block programmed cell death or apoptosis by targeting JNK” (University of Chicago, priority 2001, dated 2008).
“Also recorded” adds a separate entry of the source. Structures can show the parent of a compound that is named as a salt. Peptide text beside a SMILES is read from it. * marks the point of attachment. Cbz = O=C(OCc1ccccc1)*; CH2F = FC*

What was measured:
MDA-MD-231 = details: for induction of apoptosis by NF-κB blockers: PGA1 100 μM 20 hours, CAPE 50 μg/ml 17 hours, parthenolide 2.5 μg/ml 4 hours
BT-20 = details: for induction of apoptosis by NF-κB blockers: PGA1 100 μM 20 hours, CAPE 50 μg/ml 17 hours, parthenolide 2.5 μg/ml 4 hours
[1] = test system: JNK activation in 3DO cells; experiment: JNK activation by TNFα in 3DO cells (Western blots, JNK kinase assays); format: cell-based
Procedure: Plasmids were transfected as indicated along with pEGFP (Clontech). […] Inhibitors (Calbiochem) and concentrations are as indicated.
Northern blots were performed by standard procedures using 6 μg of total RNA. The EMSAs with the palindromic probes and the preparation of whole cell extracts were as previously described (Franzoso et al., 1992). For western blots, cell extracts were prepared either in a modified lysis buffer (50 mM Tris, pH 7.4, 100 mM NaCl, 50 mM NaF, 1 mM NaBo4, 30 mM pyrophosphate, 0.5% NP-40, and protease inhibitors (FIG. 1B; Boehringer Mannheim), in Triton X-100 buffer (FIG. 4A; Medema et al., 1997) or in a lysis buffer containing 1% NP-40 350 mM NaCl, 20 MM HEPES (pH 8.0), 20% glycerol, 1 mM MgCl2, 0.1 mM EGTA, 0.5 mM DTT, 1 mM Na3VO4, 50 mM NaF and protease inhibitors. Each time, equal amounts of proteins (ranging between 15 and 50 μg) were loaded and Western blots prepared according to standard procedures. Reactions were visualized by ECL (Amersham). Antibodies were as follows: IκBα, Bid, and β-actin from Santa Cruz Biotechnology; caspase-6, -7 and -9, phospho and total -p38, phosph and total -ERK, phospho and total -JNK from Cell Signaling Technology; caspase-8 from Alexis; Caspase-2 and -3 from R&D systems. The Gadd45β-specific antibody was generated against an N-Terminal peptide. Kinase assays were performed with recombinant GST-c-jun and anti-JNK antibodies (Pharmingen), (Lin et al., 1995).

[2] = in vivo, cited from earlier work
3DO-IκBαM cells = experiment: Survival of 3DO-IκBαM cells pretreated with MAPK inhibitors, then TNFα; details: TNFα 25 U/ml 12 hours
Procedure: FIG. 5a: Kinetics of JNK activation by TNKα (1000 U/ml) in 3DO—IκBαM and 3DO-Neo clones. Western blots with antibodies specific for phosphorylated (P) or total JNK (top and middle, respectively) and JNK kinase assays (bottom). […] CHX treatments were carried out for 30 minutes in addition to the indicated time. FIG. 5d: Survival of transfected RelA−/− MEFs following treatment with TNFα (1000 U/ml) plus CHX ([…]) for 10 hours. Plasmids were transfected as indicated along with pEGFP (Clontech). FIG. 5e: Survival of 3DO-IκBαM cells pretreated with MAPK inhibitors for 30 minutes and then incubated with either TNFα (25 U/ml) or PBS for an additional 12 hours. Inhibitors (Calbiochem) and concentrations are as indicated. In (d) and (e), values represent the mean of three independent experiments.
MEF and 3DO cells were cultured in 10% Fetal bovine serum-supplemented DMEM and RPMI, respectively. Transient transfections in RelA−/− MEF were performed by Superfect according to the manufacturer's instructions (Qiagen). After cytotoxic treatment with CHX (Sigma) plus or minus TNFα (Peprotech), adherent cells were counted and analyzed by FCM (FACSort, Becton Dickinson) to assess numbers of live GFP^+ cells. To generate 3DO stable lines, transfections were carried out by electroporatoration (BTX) and clones were grown in appropriate selection media containing Geneticin (Gibco) and/or Hygromycin (Invitrogen). […] Daunorubicin, PMA, Ionomycin, hydrogen peroxide, and sorbitol were from Sigma; Cisplatin (platinol AQ) was from VHAplus, PD98059 and SB202190 were from Calbiochem.

JNKK2/MKK7 = biological target: T1, JNKK2/MKK7 (Homo sapiens, UniProt O14733, Q133P/Q94H); experiment: Kinase assay of immunoprecipitated FLAG-JNKK2/MKK7 (GST-JNK1 substrate) pre-incubated with recombinant Gadd45β proteins or peptides; format: biochemical; details: active MKK7 from TNFα-activated 293 cells, GST-JNK1 substrate
T1 construct: expressed in transfected cells; host or cells: HEK-293, TNFα-treated or untreated; anti-FLAG immunoprecipitate
T1 sequence (O14733 1-401 Q94H/Q133P limits assumed): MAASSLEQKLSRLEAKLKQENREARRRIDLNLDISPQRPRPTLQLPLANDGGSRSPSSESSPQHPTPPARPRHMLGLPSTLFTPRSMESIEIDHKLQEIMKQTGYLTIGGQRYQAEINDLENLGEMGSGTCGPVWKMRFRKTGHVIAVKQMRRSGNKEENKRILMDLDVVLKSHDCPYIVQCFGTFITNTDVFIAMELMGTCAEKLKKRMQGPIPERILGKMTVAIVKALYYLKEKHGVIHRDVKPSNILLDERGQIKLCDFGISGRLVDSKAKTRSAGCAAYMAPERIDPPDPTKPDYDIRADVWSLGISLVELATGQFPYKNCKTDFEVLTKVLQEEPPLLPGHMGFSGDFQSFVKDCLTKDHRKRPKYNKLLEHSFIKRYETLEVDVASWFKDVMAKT
Procedure: Next, the functional consequences, in vitro, of the physical interactions of Gadd45β with kinases in the JNK pathway were assessed. Murine and human, full-length Gadd45J3 proteins were purified from E. coli as GST-Gadd45β and His6-tagged Gadd45β (His6 disclosed as SEQ ID NO: 46), respectively, according to standard procedures. Prior to employing these proteins in in vitro assays, purity of all recombinant polypeptides was assured by >98%, by performing Coomassie blue staining of SDS polyacrylamide gels. Then, the ability of these proteins, as well as of control GST and His6-EF3 (His6 disclosed as SEQ ID NO: 46)proteins, to inhibit kinases in the JNK pathways was monitored in vitro. FLAG-tagged JNKK2, JNKK1, MKK3, and ASK1 were immunoprecipitated from transiently transfected 293 cells using anti-FLAG antibodies and pre-incubated for 10 minutes with increasing concentrations of recombinant proteins, prior to the addition of specific kinase substrates (i.e. GST-JNK1 with JNKK1 and JNKK2; GST-p38[…] with MKK3; GST-JNNK1 or GST-JNKK2 with ASK1). […] These findings indicate that, upon binding to Gadd45β, JNKK2 is effectively inactivated.
A question was whether Gadd45β inhibited active MKK7, in vitro. FLAG-MKK7 was immunoprecipitated from TNFα-treated or untreated 293 cells, and kinase assays were performed in the presence of purified His6-Gadd45β (His6 disclosed as SEQ ID NO: 46), GST-Gadd45β, or control proteins (FIG. 28d; see also FIG. 28g). […] Consistent with the in vivo findings (FIG. 27), the inhibitory activity of Gadd45β was specific. […] Indeed, the effects of Gadd45β on MKK7 phosphorylation by TNFα may be due inhibition of the MKK7 ability to auto-phoshorylate and/or to serve as substrate for upstream kinases. Altogether, the findings identify MKK7 as a target of Gadd45β, and of NF-[…]B, in the JNK cascade. Of interest, MKK7 is a selective activator of JNK, and its ablation abolishes JNK activation by TNFα. Thus, blockade of MKK7 is sufficient on its own to explain the effects of Gadd45β on JNK signaling—i.e. its specific and near-complete suppression of this signaling.
Active MKK7 was immunoprecipitated from TNFα-activated 293 cells and MKK7 kinase assays were performed using GST-JNK1 substrates and pure recombinant Gadd45β polypeptides (FIG. 37B; a schematic diagram representing the Gadd45βpolypeptides used is shown in FIG. 37A). […] MKK7 kinase assays were performed as in FIG. 37B, except that pure synthetic Gadd45, peptides (whose sequences are shown in FIG. 37C) were used instead of pure recombinant Gadd45β proteins. The amino acid region between amino acids 58 and 77 of Gadd45βis used for the Gadd45β-mediated inhibition of MKK7. […]

[3] = concomitant treatment with PGA1, CAPE or parthenolide

## O=C(/C=C/c1ccc(O)c(O)c1)OCCc1ccccc1 [CAPE]
MDA-MD-231
  induction of apoptosis by NF-κB blockers: induced apoptosis rapidly
BT-20
  induction of apoptosis by NF-κB blockers: induced apoptosis rapidly

## C[C@@H]1C[C@@H]([C@H](O)CC2CC(=O)NC(=O)C2)C(=O)[C@@H](C)C1 [CHX, cycloheximide]
[1]; 3DO cells, CHX alone
  JNK activation by agent alone: no effect
[1]; parental 3DO cells, TNFα 1000 U/ml plus CHX 10 μg/ml
  down-regulation of TNFα-induced JNK: impaired

## N.N.[Cl][Pt][Cl] [Cisplatin]
[2]
  oral absorption: not absorbed orally

## COc1cccc(-c2cc(=O)c3ccccc3o2)c1N [PD98059]
3DO-IκBαM cells; 30 min pretreatment
  antagonism of TNFα cytotoxicity: could not antagonize

## Oc1ccc(-c2nc(-c3ccncc3)c(-c3ccc(F)cc3)[nH]2)cc1 [SB202190]
3DO-IκBαM cells; high concentrations, 50 μM
  cell survival under TNFα: dramatically enhanced cell survival; also recorded: rescues
3DO-IκBαM cells; low concentrations, 5 μM and lower
  antagonism of TNFα cytotoxicity: could not antagonize

## Oc1c2ccccc2c2c3c(cccc13)N=N2 [SP600125]
MDA-MD-231; [3]
  rescue from cytotoxicity induced by inhibition of NF-κB: can be rescued; also recorded: dramatically rescued
BT-20; [3]
  rescue from cytotoxicity induced by inhibition of NF-κB: can be rescued; also recorded: dramatically rescued

## COc1cccc2c1C(=O)c1c(O)c3c(c(O)c1C2=O)C[C@@](O)(C(C)=O)C[C@@H]3O[C@H]1C[C@H](N)[C@H](O)[C@H](C)O1 [daunorubicin, 5,12-Naphthacenedione, (8S-cis)-8-acetyl-10-[(3-amino-2,3,6-trideoxy-a-L-lyxo-hexanopyranosyl)oxy]-7,8,9,10-tetrahydro-6,8,11-trihydroxy-10-methoxy-, hydrochloride]
[2]
  oral absorption: poor
  half-life of elimination: about 19 hr
  secreted into the bile: ~40%

## COc1cccc2c1C(=O)c1c(O)c3c(c(O)c1C2=O)C[C@@](O)([C@H](C)O)C[C@@H]3O[C@H]1C[C@H](N)[C@H](O)[C@H](C)O1 [daunorubicinol]
[2]
  half-life of active metabolite: about 27 hr

## CCCCC[C@H](O)/C=C/[C@H]1C=CC(=O)[C@@H]1CCCCCCC(=O)O [prostaglandin A1]
MDA-MD-231
  induction of apoptosis by NF-κB blockers: induced apoptosis rapidly
BT-20
  induction of apoptosis by NF-κB blockers: induced apoptosis rapidly

## COC(=O)C[C@H](NC(=O)[C@H](C)NC(=O)[C@@H](NC(=O)OCc1ccccc1)C(C)C)C(=O)CF [zVAD-fik] (Cbz-Val-Ala-Asp(OMe)-CH2F)
[1]; IκBαM-Hygro 3DO clones
  late (160 minutes, caspase-dependent) rise of JNK activation by TNFα: could be prevented

## AIDEEEEDDIALQIHFTLIQSFCCDND [amino acids 60-86, positions 60-86 of Gadd45β]
JNKK2/MKK7
  inhibition of MKK7 activity by Gadd45β-derived peptides / polypeptide regions: sufficient to also inhibit MKK7 activity
